In patent publication US10124004B2, “Pyrido[3,4-d]pyrimidine derivative and pharmaceutically acceptable salt thereof” (Teijin Pharma Limited, priority 2015, dated 2018):

Assays:
CDK2/cyclin A2 = target: T1, CDK2/cyclin A2 (Homo sapiens, UniProt P24941); test: Human CDK2/cyclin A2 inhibitory activity (QS S Assist CDK2/Cyclin A2_FP Kit, IMAP fluorescence polarization); assay type: biochemical; settings: 50% inhibitory concentration against CDK2/cyclin A2, given as class symbol
T1 construct: purchased Carna Biosciences, Inc. QS S Assist CDK2/Cyclin A2_FP Kit
In short: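 Kinase activity read as fluorescence polarization (485/535 nm) after phosphorylated fluorescent substrate binds IMAP reagent (30 min, RT, dark). Enzyme (2.5 ng/well) reacted 60 min at RT with ATP/substrate/metal in HEPES pH 7.4 buffer with Tween 20 and DTT; no-enzyme wells define 0% activity; IC50 by curve fit.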

CDK4/cyclin D3 = target: T2, CDK4/cyclin D3 (Homo sapiens, UniProt P11802); test: Human CDK4/cyclin D3 inhibitory activity (QS S Assist CDK4/Cyclin D3_FP Kit, IMAP fluorescence polarization); assay type: biochemical; settings: 50% inhibitory concentration against CDK4/cyclin D3, given as class symbol
T2 construct: purchased Carna Biosciences, Inc. QS S Assist CDK4/Cyclin D3_FP Kit
T2 sequence (P11802 whole entry): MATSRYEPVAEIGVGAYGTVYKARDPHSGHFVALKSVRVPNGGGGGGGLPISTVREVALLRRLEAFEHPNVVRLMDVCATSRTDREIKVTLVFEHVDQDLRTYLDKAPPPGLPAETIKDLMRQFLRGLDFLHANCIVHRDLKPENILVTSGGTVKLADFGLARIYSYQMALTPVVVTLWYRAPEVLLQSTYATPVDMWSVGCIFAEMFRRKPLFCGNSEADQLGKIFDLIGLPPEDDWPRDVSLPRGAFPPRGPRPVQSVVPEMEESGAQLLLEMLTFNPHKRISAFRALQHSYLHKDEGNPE
T2 sequence (P30281 whole entry partner): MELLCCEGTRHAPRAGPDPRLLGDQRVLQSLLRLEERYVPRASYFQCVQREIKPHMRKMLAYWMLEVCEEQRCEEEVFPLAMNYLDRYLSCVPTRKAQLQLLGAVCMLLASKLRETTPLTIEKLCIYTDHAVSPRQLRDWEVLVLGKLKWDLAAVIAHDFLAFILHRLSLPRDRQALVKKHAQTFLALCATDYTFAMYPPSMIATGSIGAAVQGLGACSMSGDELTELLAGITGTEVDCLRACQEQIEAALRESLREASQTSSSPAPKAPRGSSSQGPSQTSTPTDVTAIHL
In short: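 IMAP fluorescence polarization kit: CDK4/cyclin D3 at 12.5-25 ng/well with kit ATP/substrate/metal mix in 20 mM HEPES pH 7.4, 0.01% Tween20, 2 mM DTT, 45 min at room temperature. FP read at 485/535 nm after 30 min binding; IC50 from dose-response fit of percent inhibition versus enzyme and no-enzyme controls.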

| SMILES | IC50 (CDK2/cyclin A2) [µM] | IC50 (CDK4/cyclin D3) [µM] |
| --- | --- | --- |
| CC(C)Nc1nc([C@@H](C)O)cc2cnc(Nc3cnc(N4CCNCC4)cn3)nc12 [Compound 789] | ≥ 0.1 | < 0.01 |
| CC(C)Nc1nc([C@@H](C)O)cc2cnc(Nc3ccc(C4CCN(C(C)(C)C(=O)O)CC4)nn3)nc12 [Compound 790] | ≥ 0.1 | < 0.01 |
| CC(C)Nc1nc([C@@H](C)O)cc2cnc(Nc3ccc(N4CCC(C(=O)O)CC4)nn3)nc12 [Compound 792] | ≥ 0.1 | 0.01 to 0.1 |
| CC(C)Nc1nc([C@@H](C)O)cc2cnc(Nc3ccc(N4CCC(C(C)(C)C(=O)O)CC4)nn3)nc12 [Compound 794] | ≥ 0.1 | < 0.01 |
| C[C@@H](O)c1cc2cnc(Nc3ccc(N4CCNCC4=O)cn3)nc2c(NC(C)(C)C)n1 [Compound 795] | 0.01 to 0.1 | < 0.01 |
| CC(C)Nc1nc([C@@H](C)O)cc2cnc(Nc3ccc(C4CCN(C(C)(C)C(=O)O)CC4)cn3)nc12 [Compound 796] | ≥ 0.1 | < 0.01 |
| CC(C)Nc1nc([C@@H](C)O)cc2cnc(Nc3ccc(N4CCC(CC(=O)O)CC4)nn3)nc12 [Compound 797] | ≥ 0.1 | 0.01 to 0.1 |
| CC(C)Nc1nc([C@@H](C)O)cc2cnc(Nc3ccc(C4COCCN4)cn3)nc12 (stereo partly shown) [Compound 798] | ≥ 0.1 | < 0.01 |
| CNC1CCCC1Oc1ccc(Nc2ncc3cc(C(C)O)nc(NC(C)C)c3n2)nc1 (stereo not shown) [Compound 799] | ≥ 0.1 | < 0.01 |
| C[C@@H](O)c1cc2cnc(Nc3ccc(OCC4CNC4)cn3)nc2c(N[C@H]2CCCOC2)n1 [Compound 800] | ≥ 0.1 | < 0.01 |
| CNC1CCCC1Oc1ccc(Nc2ncc3cc(C(C)O)nc(NC(C)C)c3n2)nc1 (stereo not shown) [Compound 801] | ≥ 0.1 | < 0.01 |
| CC(C)Nc1nc([C@@H](C)O)cc2cnc(Nc3ccc(N4CCOCC4=O)cn3)nc12 [Compound 804] | ≥ 0.1 | < 0.01 |
| C[C@@H](O)c1cc2cnc(Nc3ccc(O[C@@H]4CCNC4)cn3)nc2c(N[C@H]2CCCOC2)n1 [Compound 805] | ≥ 0.1 | < 0.01 |
| O=C(O)C1CCN(Cc2ccc(Nc3ncc4cc(C(F)F)nc(N[C@H]5CCCOC5)c4n3)nc2)CC1 [Compound 806] | ≥ 0.1 | < 0.01 |
| CC(C)Nc1nc([C@@H](C)O)cc2cnc(Nc3ccc(-c4cnn(C5CCNCC5)c4)cn3)nc12 [Compound 808] | ≥ 0.1 | < 0.01 |
| CCNc1nc([C@@H](C)O)cc2cnc(Nc3ccc(N4CCNCC4=O)cn3)nc12 [Compound 812] | ≥ 0.1 | 0.01 to 0.1 |
| CCNc1nc([C@@H](C)OC)cc2cnc(Nc3ccc(N4CCNCC4)nn3)nc12 [Compound 817] | ≥ 0.1 | < 0.01 |
| O=C1CNCCN1c1ccc(Nc2ncc3cc(C(F)F)nc(NC4CCOCC4)c3n2)nc1 [Compound 822] | 0.01 to 0.1 | < 0.01 |
| Cc1nc(Nc2ncc3cc(C4CCOC4)nc(NC(C)C)c3n2)ccc1N1CCNCC1=O (stereo not shown) [Compound 824] | ≥ 0.1 | < 0.01 |

| SMILES | IC50 (CDK2/cyclin A2) [µM] | IC50 (CDK4/cyclin D3) [µM] |
| --- | --- | --- |
| CC(C)CNc1nc([C@@H](C)O)cc2cnc(Nc3ccc(N4CCNCC4)nn3)nc12 [Compound 827] | ≥ 0.1 | < 0.01 |
| CC(C)Nc1nc([C@@H](C)O)cc2cnc(Nc3ccc(N4CCC(CCC(=O)O)CC4)nn3)nc12 [Compound 828] | ≥ 0.1 | 0.01 to 0.1 |
| C[C@@H](O)c1cc2cnc(Nc3ccc(C4CCN(CC(=O)O)CC4)cn3)nc2c(NC(C)(C)C)n1 [Compound 830] | ≥ 0.1 | < 0.01 |
| CC(C)Nc1nc([C@@H](C)O)cc2cnc(Nc3ccc(N4CCN(CC(=O)O)CC4=O)cn3)nc12 [Compound 833] | ≥ 0.1 | < 0.01 |
| C[C@@H](O)c1cc2cnc(Nc3ccc(C4CCN(C(C)(C)C(=O)O)CC4)cn3)nc2c(NC(C)(C)C)n1 [Compound 834] | ≥ 0.1 | < 0.01 |
| CC(C)Nc1nc([C@@H](C)O)cc2cnc(Nc3ccc(N4CCCC(C(=O)O)C4)cn3)nc12 (stereo partly shown) [Compound 835] | ≥ 0.1 | 0.01 to 0.1 |
| CC(C)Nc1nc([C@@H](C)O)cc2cnc(Nc3ccc(N4CCC(C(=O)O)CC4)cn3)nc12 [Compound 836] | ≥ 0.1 | 0.01 to 0.1 |
| C[C@@H](O)c1cc2cnc(Nc3ccc(CN4CCC(C(=O)O)CC4)cn3)nc2c(NC(C)(C)C)n1 [Compound 837] | 0.01 to 0.1 | < 0.01 |
| CO[C@H](C)c1cc2cnc(Nc3ccc(NC(=O)C4CCCCN4)cn3)nc2c(NC(C)C)n1 (stereo partly shown) [Compound 838] | ≥ 0.1 | < 0.01 |
| O=C1CNCCN1c1ccc(Nc2ncc3c(Cl)c(C(F)F)nc(NCC4CCOCC4)c3n2)nc1 [Compound 840] | ≥ 0.1 | ≥ 0.1 |
| CC(C)Nc1nc([C@@H](C)O)c(Cl)c2cnc(Nc3ccc(N4CCN(CCO)CCC4=O)cn3)nc12 [Compound 841] | ≥ 0.1 | < 0.01 |
| CO[C@H](C)c1nc(NC(C)C)c2nc(Nc3ccc(C(=O)N4CCNCC4)cn3)ncc2c1Cl [Compound 842] | ≥ 0.1 | 0.01 to 0.1 |
| CC(C)CNc1nc([C@@H](C)O)cc2cnc(Nc3ccc(CN4CCN(CCO)CC4)cn3)nc12 [Compound 846] | ≥ 0.1 | < 0.01 |
| O=C1CNCCN1c1ccc(Nc2ncc3cc(C(F)F)nc(N[C@H]4CCCOC4)c3n2)nc1 [Compound 849] | 0.01 to 0.1 | < 0.01 |
| CC(C)Nc1nc(C(F)F)c(Cl)c2cnc(Nc3ccc(N4CCNCC4=O)cn3)nc12 [Compound 850] | 0.01 to 0.1 | 0.01 to 0.1 |
| Cc1nc(Nc2ncc3c(Cl)c(C(F)F)nc(NC(C)C)c3n2)ccc1N1CCNCC1=O [Compound 851] | ≥ 0.1 | 0.01 to 0.1 |
| CCCNc1nc([C@@H](C)OC)cc2cnc(Nc3ccc(CN4CCN(CCO)CC4)cn3)nc12 [Compound 852] | ≥ 0.1 | < 0.01 |
| CCCCNc1nc([C@@H](C)OC)cc2cnc(Nc3ccc(N4CCNCC4)nn3)nc12 [Compound 855] | ≥ 0.1 | < 0.01 |
| O=C1CNCCN1Cc1ccc(Nc2ncc3cc(C(F)F)nc(N[C@H]4CCCOC4)c3n2)nc1 [Compound 856] | ≥ 0.1 | < 0.01 |

Other lines, results leading:

| IC50 (CDK2/cyclin A2) [µM] | IC50 (CDK4/cyclin D3) [µM] | SMILES |
| --- | --- | --- |
| 0.01 to 0.1 | < 0.01 | C[C@@H](O)c1cc2cnc(Nc3ccc(N4CCNCC4)nn3)nc2c(NC(C)(C)C)n1 [Compound 791] |
| ≥ 0.1 | 0.01 to 0.1 | CC(C)Nc1nc([C@@H](C)O)cc2cnc(Nc3ccc(N4CCCC(C(=O)O)C4)nn3)nc12 (stereo partly shown) [Compound 793] |
| ≥ 0.1 | < 0.01 | C[C@@H](O)c1cc2cnc(Nc3ccc(OCC4CCN4)cn3)nc2c(N[C@H]2CCCOC2)n1 (stereo partly shown) [Compound 802] |
| ≥ 0.1 | < 0.01 | C[C@@H](O)c1cc2cnc(Nc3ccc(O[C@H]4CCNC4)cn3)nc2c(N[C@H]2CCCOC2)n1 [Compound 803] |
| ≥ 0.1 | 0.01 to 0.1 | CC(C)Nc1nc(C2CCCOC2)cc2cnc(Nc3ccc(N4CCNCC4=O)cn3)nc12 (stereo not shown) [Compound 807] |
| 0.01 to 0.1 | < 0.01 | CC(C)Nc1nc([C@@H](C)O)cc2cnc(Nc3ccc(N4CCN(CCO)CCC4=O)cn3)nc12 [Compound 811] |
| ≥ 0.1 | < 0.01 | CCCCNc1nc([C@@H](C)O)cc2cnc(Nc3ccc(N4CCNCC4=O)cn3)nc12 [Compound 813] |
| ≥ 0.1 | < 0.01 | CCCNc1nc([C@@H](C)O)cc2cnc(Nc3ccc(N4CCNCC4=O)cn3)nc12 [Compound 814] |
| ≥ 0.1 | < 0.01 | Cc1nc(Nc2ncc3c(Cl)c([C@@H](C)O)nc(NC(C)C)c3n2)ccc1N1CCNCC1=O [Compound 815] |
| ≥ 0.1 | < 0.01 | CCNc1nc([C@@H](C)OC)cc2cnc(Nc3ccc(CN4CCNCC4)cn3)nc12 [Compound 816] |
| 0.01 to 0.1 | < 0.01 | CCNc1nc(C(F)F)cc2cnc(Nc3ccc(N4CCNCC4=O)cn3)nc12 [Compound 820] |
| 0.01 to 0.1 | < 0.01 | CCCNc1nc(C(F)F)cc2cnc(Nc3ccc(N4CCNCC4=O)cn3)nc12 [Compound 821] |
| ≥ 0.1 | 0.01 to 0.1 | O=C1CNCCN1c1ccc(Nc2ncc3cc(C(F)F)nc(NCC4CCOCC4)c3n2)nc1 [Compound 823] |
| ≥ 0.1 | < 0.01 | CC(C)Nc1nc([C@@H](C)O)cc2cnc(Nc3ccc(N4CC5CCCN5CC4=O)cn3)nc12 (stereo partly shown) [Compound 825] |
| ≥ 0.1 | < 0.01 | CC(C)CNc1nc([C@@H](C)O)cc2cnc(Nc3ccc(N4CCNCC4=O)cn3)nc12 [Compound 826] |
| ≥ 0.1 | < 0.01 | CC(C)Nc1nc([C@@H](C)O)cc2cnc(Nc3ccc(C4CCN(CC(=O)O)CC4)cn3)nc12 [Compound 829] |
| ≥ 0.1 | < 0.01 | C[C@H]1CC[C@H](Nc2nc(C(F)F)cc3cnc(Nc4ccc(CN5CCC(C(=O)O)CC5)cn4)nc23)CC1 [Compound 839] |
| ≥ 0.1 | < 0.01 | CCCCNc1nc([C@@H](C)O)cc2cnc(Nc3ccc(CN4CCN(CCO)CC4)cn3)nc12 [Compound 845] |
| ≥ 0.1 | < 0.01 | C[C@@H](O)c1cc2cnc(Nc3ccc(CN4CCN(CCO)CC4)cn3)nc2c(NCC2CCOCC2)n1 [Compound 847] |
| ≥ 0.1 | < 0.01 | CCCCNc1nc([C@@H](C)OC)cc2cnc(Nc3ccc(CN4CCN(CCO)CC4)cn3)nc12 [Compound 853] |
| ≥ 0.1 | < 0.01 | CCCCNc1nc([C@@H](C)OC)cc2cnc(Nc3ccc(CN4CCNCC4)cn3)nc12 [Compound 854] |
